This note sets out measurements from PubChem BioAssay (NCI).

SMILES strings stand for the structures. “And” between values parts separate entries of the source, which are not always exact repeats. Equal entries are not always repeated.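 The compound was tested at five concentrations on cells cultured in 96-well plates, with a 48-hour exposure period. Abbreviation: GI50, concentration required for 50% inhibition of growth. TGI: concentration producing complete growth inhibition.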

Some test systems named below: A498 renal; EKVX NSCLC; NCI-H23 lung; NCI-H460 lung; SF-268 CNS; SF-295 CNS; SK-MEL-5 melanoma; TK-10 renal; RXF 393 renal; OVCAR-5 ovarian.
Common to all, as to test: NCI anticancer screen, dose series, 48 h

Turning to `Cc1c(NC2(C)C(=O)N(/N=C/c3ccccc3)N=C2c2ccccc2)n[nH]c1-c1ccccc1` (configuration not stated), the TGI in the test on A498 renal, in the test with EKVX NSCLC, in the test with NCI-H23 lung, with NCI-H460 lung, in the test on SF-268 CNS and in the test with SF-295 CNS was above 100 µM in each case. The TGI in the test with SK-MEL-5 melanoma, with TK-10 renal, in the test with RXF 393 renal and in the test with OVCAR-5 ovarian was above 100 µM each time.
As for `CC(=O)c1cc2ccccc2n(O)c1=N`, the TGI with A498 renal, in the test on EKVX NSCLC, in the test on NCI-H23 lung, with NCI-H460 lung, with SF-268 CNS and in the test with SF-295 CNS was above 100 µM throughout. In addition, the TGI in the test on SK-MEL-5 melanoma, with TK-10 renal, in the test with RXF 393 renal and with OVCAR-5 ovarian was above 100 µM throughout.
With `CC(=O)OCC=C(CCl)CCC(Br)C(C)(C)Br` (mixture of isomers), the TGI in the test on A498 renal, with EKVX NSCLC, in the test on NCI-H23 lung, with NCI-H460 lung, with SF-268 CNS and in the test with SF-295 CNS was above 10 µM in each case. For the same molecule, the TGI with SK-MEL-5 melanoma, in the test with TK-10 renal, in the test on RXF 393 renal and with OVCAR-5 ovarian was above 10 µM throughout.
As to `COc1ccc(C(=O)N2c3ccccc3Sc3ccccc32)c(C(F)(F)F)c1`, the GI50 is 0.282 µM in the test on A498 renal; 0.613 µM in the test on EKVX NSCLC; 0.578 µM with NCI-H23 lung; 0.383 µM in the test with NCI-H460 lung; 3.04 µM in the test with SF-268 CNS; 0.372 µM in the test on SF-295 CNS. Also, the GI50 with SK-MEL-5 melanoma is 0.692 µM; with TK-10 renal, 16.7 µM; in the test with RXF 393 renal, 0.362 µM; with OVCAR-5 ovarian, 1.61 µM. Besides, the TGI with A498 renal is 0.877 µM; with EKVX NSCLC, above 100 µM; with NCI-H23 lung, above 100 µM; with NCI-H460 lung, above 100 µM; in the test with SF-268 CNS it was above 100 µM; in the test on SF-295 CNS, above 100 µM. Further, the TGI in the test with SK-MEL-5 melanoma was 16.6 µM; with TK-10 renal, above 100 µM; in the test on RXF 393 renal it was above 100 µM; in the test with OVCAR-5 ovarian it was above 100 µM.
As for `CSc1cc(N)ccc1N=Nc1ccc(S(N)(=O)=O)cc1`, the TGI in the test with A498 renal was above 100 µM; in the test with EKVX NSCLC, above 100 µM; in the test on NCI-H23 lung, above 100 µM; in the test on NCI-H460 lung, 71.6 µM; in the test on SF-268 CNS, above 100 µM; with SF-295 CNS, 56.6 µM. The TGI with SK-MEL-5 melanoma was 30.6 µM; in the test with TK-10 renal, 72 µM; in the test with RXF 393 renal, above 100 µM; in the test with OVCAR-5 ovarian, above 100 µM.
Regarding `CSC1=NS(=O)(=O)c2cc(C(=O)NN(C)C(=O)c3cc4c(cc3Cl)SC(SC)=NS4(=O)=O)c(Cl)cc2S1`, the TGI in the test with A498 renal, with EKVX NSCLC, with NCI-H23 lung, with NCI-H460 lung, with SF-268 CNS and in the test with SF-295 CNS was above 10 µM each time. Besides, the TGI in the test with SK-MEL-5 melanoma, in the test on TK-10 renal, with RXF 393 renal and in the test on OVCAR-5 ovarian was above 10 µM in each case.
With `COc1ccc(/C=C2\N=C(c3ccccc3)N(C3Nc4cc5c(cc4S3)NC(N3C(=O)/C(=C/c4ccc(OC)cc4)N=C3c3ccccc3)S5)C2=O)cc1` (configuration not stated), the TGI in the test with A498 renal is above 100 µM; in the test with EKVX NSCLC, 99.5 µM; in the test with NCI-H23 lung it was above 100 µM; with NCI-H460 lung, above 100 µM; with SF-268 CNS, above 100 µM; in the test with SF-295 CNS it was above 100 µM. Also, the TGI with SK-MEL-5 melanoma, in the test on TK-10 renal, with RXF 393 renal and in the test with OVCAR-5 ovarian was above 100 µM throughout.
In the case of `C[C@]12CC[C@@H]3c4ccc(OC(=O)c5ccccc5)cc4CC[C@H]3[C@@H]1CC[C@@H]2Oc1c2ccccc2nc2ccccc12`, the TGI in the test on A498 renal was above 50 µM; in the test on EKVX NSCLC, 8.96 µM; in the test with NCI-H23 lung, above 50 µM; in the test on NCI-H460 lung, 17.1 µM; in the test on SF-268 CNS, 20.8 µM; with SF-295 CNS, above 50 µM. Further, the TGI with SK-MEL-5 melanoma is 18.5 µM; in the test on TK-10 renal it was above 50 µM; in the test on RXF 393 renal, 15.8 µM; in the test with OVCAR-5 ovarian, above 50 µM.
As to `NC(N)=NS(=O)(=O)c1ccc(NC(=O)c2ccc3nc4ccccc4c(Nc4ccc(S(N)(=O)=O)cc4)c3c2)cc1`, the TGI with A498 renal, in the test on EKVX NSCLC, in the test on NCI-H23 lung, with NCI-H460 lung, in the test on SF-268 CNS and with SF-295 CNS was above 100 µM throughout. In addition, the TGI in the test on SK-MEL-5 melanoma, with TK-10 renal, in the test on RXF 393 renal and in the test with OVCAR-5 ovarian was above 100 µM in each case.
For `CC1(COS(=O)(=O)OCC2(C)COS(=O)(=O)OC2)COS(=O)(=O)OC1`, the TGI in the test with A498 renal was 97.2 µM; in the test with EKVX NSCLC, above 100 µM; in the test with NCI-H23 lung, above 89.4 µM; in the test with NCI-H460 lung, above 100 µM; with SF-268 CNS, above 100 µM; with SF-295 CNS, above 100 µM. Moreover, the TGI with SK-MEL-5 melanoma, in the test with TK-10 renal, in the test on RXF 393 renal and in the test on OVCAR-5 ovarian was above 100 µM each time.
In the case of `NCCCCNCCCNC(=O)c1nc(-c2csc(CCN)n2)sc1Cl`, the TGI in the test on A498 renal, with EKVX NSCLC, in the test with NCI-H23 lung, with NCI-H460 lung, with SF-268 CNS and with SF-295 CNS was above 100 µM throughout. The TGI in the test with SK-MEL-5 melanoma, with TK-10 renal, with RXF 393 renal and with OVCAR-5 ovarian was above 100 µM each time.
For `COc1ccc2c(c1)/c(=C/c1ccc(N(C)C)cc1)c1cc(-c3ccccc3)[n+](C)n12`, the TGI was 2.75 µM with A498 renal; 1.42 µM in the test on EKVX NSCLC; 1.1 µM in the test on SF-268 CNS; 1.06 µM in the test with SK-MEL-5 melanoma; 5.32 µM and 6.29 µM in the test on TK-10 renal; 1.64 µM in the test with RXF 393 renal. Moreover, in the test with OVCAR-5 ovarian, the TGI turned out to be 3.17 µM. In addition, in the test with TK-10 renal, the GI50 was 0.711 µM.
`CC1(C)Oc2ccc(NC(=O)CCC(N)C(=O)O)cc2O1` (configuration not stated): the TGI in the test on A498 renal, in the test with EKVX NSCLC, in the test on NCI-H23 lung, with NCI-H460 lung, in the test on SF-295 CNS and with SK-MEL-5 melanoma was above 100 µM each time. The TGI in the test on TK-10 renal, in the test with RXF 393 renal and in the test with OVCAR-5 ovarian was above 100 µM in each case.
Take `Cn1cnc2c(sc3nc4ccccc4n32)c1=N`: the TGI in the test on A498 renal, in the test on EKVX NSCLC, in the test with NCI-H23 lung, in the test with SF-268 CNS, in the test on SF-295 CNS and in the test with SK-MEL-5 melanoma was above 100 µM in each case. Also, the TGI in the test with TK-10 renal, in the test on RXF 393 renal and in the test with OVCAR-5 ovarian was above 100 µM each time.
`CCO/C(O)=C(/C(=N)N1CCCC1)C(=O)Nc1cccc(C(F)(F)F)c1`: the TGI in the test with A498 renal, in the test on EKVX NSCLC, in the test on NCI-H23 lung, in the test on NCI-H460 lung, in the test on SF-268 CNS and in the test with SF-295 CNS was above 100 µM in each case. The TGI in the test on TK-10 renal was above 100 µM; in the test with RXF 393 renal it was 53.6 µM; in the test with OVCAR-5 ovarian it was above 100 µM.
For `CCCCOCn1c(=O)[nH]c(=O)c2cc(Br)ccc21`, the TGI in the test with A498 renal, in the test on EKVX NSCLC, in the test on SF-295 CNS, in the test with SK-MEL-5 melanoma, in the test on TK-10 renal and with RXF 393 renal was above 100 µM in each case. The same molecule registered a TGI with OVCAR-5 ovarian above 100 µM.
Regarding `CC(=O)O[C@H]1C(=O)[C@@]2(C)[C@H]([C@H](OC(=O)c3ccccc3)[C@]3(O)C[C@H](OC(=O)[C@H](O)[C@@H](NC(=O)CC(C)(C)C)c4ccccc4)C(C)=C1C3(C)C)C1(OC(C)=O)CO[C@@H]1C[C@@H]2O` (some centres not stated), the TGI in the test on A498 renal is above 10 µM; in the test on EKVX NSCLC, above 10 µM; in the test on NCI-H23 lung it was above 10 µM; in the test with NCI-H460 lung it was above 10 µM; with SF-268 CNS it was above 6.19 µM; with SK-MEL-5 melanoma, above 10 µM. In addition, the TGI is above 10 µM in the test with TK-10 renal, 0.148 µM with RXF 393 renal and above 2.93 µM with OVCAR-5 ovarian.
Regarding `COc1cc(/C=C2\CCC(C)C3=C2NC(=S)NC3c2cc(OC)c(OC)c(OC)c2)cc(OC)c1OC` (configuration not stated), the TGI with A498 renal was above 100 µM; in the test on EKVX NSCLC, above 100 µM; in the test with SF-268 CNS, above 100 µM; in the test with SK-MEL-5 melanoma, 59 µM; with TK-10 renal, above 100 µM; in the test on RXF 393 renal, above 100 µM. The molecule also registered a TGI in the test on OVCAR-5 ovarian above 100 µM.
`CC(=O)c1cc2c(s1)C(=O)c1ccccc1C2=O`: the TGI is above 66.8 µM in the test on A498 renal; 15.9 µM in the test with EKVX NSCLC; above 33.4 µM in the test on NCI-H460 lung; 16 µM with SF-268 CNS; 8.99 µM in the test on SF-295 CNS; 0.588 µM with SK-MEL-5 melanoma. Further, the values for the TGI in the test on TK-10 renal, in the test on RXF 393 renal and in the test on OVCAR-5 ovarian were 42.3 µM, 28 µM and 20.6 µM, respectively.
